From US20090291964A1, “Potentiators of Antibacterial Activity” (priority 2003, published 2009)
Like-named read-outs stand apart in the source and are kept apart here.

Experiments:
Type in all cases: cell-based
[1] = test system: S. aureus clinical isolates; assay: MIC90 studies: fluoroquinolone susceptibility of clinical isolate panel with EPI; conditions: Staphylococcus aureus
Protocol: (§1) Susceptibility studies with large panels of resistant clinical isolates were performed at Focus Technologies, Herndon, Va. according to NCCLS protocols (National Committee for Clinical Laboratory Standards, supra).
(§2) To be useful in combination therapy, an EPI needs to substantially reduce the MIC of an antibiotic to within the range of clinical susceptibility. Because many different resistance mechanisms are often present in clinical isolates, including the likelihood of multiple target-based mutations in addition to efflux mutations, the barrier to antibiotic efficacy is much greater. […] Oxacillin and vancomycin MICs were also determined to identify which isolates were methicillin-resistant (S. aureus) and vancomycin-resistant (E. faecalis).

S. aureus ATCC 29213 = assay: MIC by NCCLS microdilution, antibacterial agents with and without EPI; conditions: for MIC: Staphylococcus aureus; for MIC in the presence of 4X MEC of EPI, VX-710: VX-710 100 μg/ml; for MIC in the presence of 4X MEC of EPI, VX-853: VX-853 6.25 μg/ml; for MIC in the presence of 4X MEC of EPI, reserpine: reserpine 25 μg/ml
Protocol: 3% sterile laked horse blood (Quad Five, Ryegate, Mont.) was added to assays for E. faecalis and S. Pneumoniae. A final concentration of 1% DMSO was present in all assays. […]
A-106 and C-9 were tested at their respective MECs in combination with a variety of different classes of antibiotics against S. aureus ATCC 29213 (Table 2).

[2] = test system: S. aureus SA-1199 (clinical isolate, susceptible); assay: MIC of fluoroquinolones with and without EPI
Description: (§3) A variety of strains may be used in these experiments, including, but not limited to, S. aureus ATCC 29213, E. faecalis ATCC 29212, and S. pneumoniae, S. aureus strains SA-1199, SA-1199B, SA-8325-4, and SA-K2068. S. aureus ATCC 29213, E. faecalis ATCC 29212, and S. pneumoniae ATCC 10015 were obtained from the American Type Culture Collection (Manassas, Va.). S. aureus strains SA-1199 (clinical isolate, susceptible), SA-1199B (SA-1199, NorA overproducing, also has A116E GrlA mutation), SA-8325-4 (NCTC 8325 cured of prophages), SA-K2068 (SA-8325-4, non-NorA multidrug efflux pump overproducing mutation) were obtained from Glenn Kaatz (Kaatz et al., “Identification and characterization of a novel efflux-related multidrug resistance phenotype in Staphylococcus aureus”, J. Antimicrob. Chemother. 50:833-838 (2002); 1993; Kaatz et al., “Phenothiazines and thioxanthenes inhibit multidrug efflux pump activity in Staphylococcus aureus”, Antimicrob. Agents Chemother. 47:719-726, Kaatz et al., “Efflux-mediated fluoroquinolone resistance in Staphylococcus aureus. Antimicrob. Agents Chemother.”, 37:1086-1094, 1993)).
(§4) 3% sterile laked horse blood (Quad Five, Ryegate, Mont.) was added to assays for E. faecalis and S. Pneumoniae. A final concentration of 1% DMSO was present in all assays.

S. aureus SA-8325-4 = assay: MIC of fluoroquinolones with and without EPI; conditions: Staphylococcus aureus, SA83254, read-out: MIC of antibacterial agent, EPI none
Description: as §3, §4

[3] = test system: S. aureus SA-K2068 (non-NorA multidrug efflux pump overproducing); assay: microbe, parasite or virus in culture; conditions: S. aureus K2068 (non-NorA MDR pump overproducer); no EPI
Description: as §3, §4
(§5) Recent more hydrophobic fluoroquinolones such as gatifloxacin and moxifloxacin are less well recognized by NorA; however, recently one other pump in S. aureus has been described which also recognizes hydrophobic fluoroquinolones (Kaatz et al. 2002, supra). To investigate the potential of A-106 and C-9 to block the efflux of several fluoroquinolones in cells with constituitively over-expressed efflux pumps, we used S. aureus strains SA-1199B and K2068 (Table 3). […] Kaatz et al., “Phenothiazines and thioxanthenes inhibit multidrug efflux pump activity in Staphylococcus aureus”, Antimicrob. Agents Chemother. 47:719-726 (2003).

[4] = test system: S. aureus SA-1199B (NorA overproducing); assay: MIC of fluoroquinolones with and without EPI; conditions: S. aureus SA-1199B (NorA overproducer, GrlA A116E); no EPI
Description: as §3, §4, §5

[5] = test system: E. faecalis clinical isolates; assay: MIC90 studies: fluoroquinolone susceptibility of clinical isolate panel with EPI; conditions: Enterococcus faecalis
Protocol: as §1, §2

[6] = ATCC29213, antibacterial agent alone, read-out: MIC, No EPI

Cc1onc(-c2ccccc2)c1C(=O)N[C@@H]1C(=O)N2[C@@H]1SC(C)(C)[C@@H]2C(=O)O [Oxacillin]
MIC ([1]; S. aureus clinical isolate 1): 16 µg/mL
MIC ([1]; S. aureus clinical isolate 2): > 64 µg/mL
MIC ([1]; S. aureus clinical isolate 3): 32 µg/mL
MIC ([1]; S. aureus clinical isolate 4): > 64 µg/mL
MIC ([1]; S. aureus clinical isolate 5): 2 µg/mL
MIC ([1]; S. aureus clinical isolate 6): 16 µg/mL
MIC ([1]; S. aureus clinical isolate 7): 2 µg/mL
MIC ([1]; S. aureus clinical isolate 8): 4 µg/mL
MIC ([1]; S. aureus clinical isolate 9): 2 µg/mL
MIC ([1]; S. aureus clinical isolate 10): > 64 µg/mL
MIC ([1]; S. aureus clinical isolate 11): > 64 µg/mL
MIC ([1]; S. aureus clinical isolate 12): 2 µg/mL
MIC ([1]; S. aureus clinical isolate 13): > 64 µg/mL
MIC ([1]; S. aureus clinical isolate 14): > 64 µg/mL
MIC ([1]; S. aureus clinical isolate 15): > 64 µg/mL

CC[C@H]1OC(=O)[C@H](C)[C@@H](O[C@H]2C[C@@](C)(OC)[C@@H](O)[C@H](C)O2)[C@H](C)[C@@H](O[C@@H]2O[C@H](C)C[C@H](N(C)C)[C@H]2O)[C@](C)(O)C[C@@H](C)C(=O)[C@H](C)[C@@H](O)[C@]1(C)O [erythromycin]
MIC (S. aureus ATCC 29213; [6]): 0.25 µg/mL
MIC in the presence of 4X MEC of EPI, VX-710 (S. aureus ATCC 29213): 0.25 µg/mL
MIC in the presence of 4X MEC of EPI, VX-853 (S. aureus ATCC 29213): 0.25 µg/mL
MIC in the presence of 4X MEC of EPI, reserpine (S. aureus ATCC 29213): 0.25 µg/mL

[Br-].c1ccc([P+](c2ccccc2)(c2ccccc2)c2ccccc2)cc1 [tetraphenylphosphonium bromide]
MIC (S. aureus ATCC 29213; ATCC29213, read-out: MIC, No EPI, antibacterial agent alone): 16 µg/mL
MIC in the presence of 4X MEC of EPI, VX-710 (S. aureus ATCC 29213): 4 µg/mL
MIC in the presence of 4X MEC of EPI, VX-853 (S. aureus ATCC 29213): 8 µg/mL
MIC in the presence of 4X MEC of EPI, reserpine (S. aureus ATCC 29213): 8 µg/mL

O=C(N[C@H](CO)[C@H](O)c1ccc([N+](=O)[O-])cc1)C(Cl)Cl [chloramphenicol]
MIC (S. aureus ATCC 29213; [6]): 8 µg/mL
MIC in the presence of 4X MEC of EPI, VX-710 (S. aureus ATCC 29213): 8 µg/mL
MIC in the presence of 4X MEC of EPI, VX-853 (S. aureus ATCC 29213): 8 µg/mL
MIC in the presence of 4X MEC of EPI, reserpine (S. aureus ATCC 29213): 8 µg/mL

C[C@H]1COc2c(N3CCN(C)CC3)c(F)cc3c(=O)c(C(=O)O)cn1c23 [levofloxacin]
MIC ([2]; Staphylococcus aureus, read-out: MIC of antibacterial agent, EPI none): 0.125 µg/mL
MIC (S. aureus SA-8325-4): 0.25 µg/mL
MIC (S. aureus ATCC 29213; [6]): 0.25 µg/mL
MIC in the presence of 4X MEC of EPI, VX-710 (S. aureus ATCC 29213): 0.125 µg/mL
MIC in the presence of 4X MEC of EPI, VX-853 (S. aureus ATCC 29213): 0.125 µg/mL
MIC in the presence of 4X MEC of EPI, reserpine (S. aureus ATCC 29213): 0.125 µg/mL

gentamicin [reference compound]
MIC of antibacterial agent, EPI none ([2]; S. aureus SA-1199, no EPI): 0.5 µg/mL
MIC of antibacterial agent, EPI none [3]: 0.063 µg/mL
MIC of antibacterial agent, EPI none (S. aureus ATCC 29213; S. aureus ATCC 29213, no EPI): 0.5 µg/mL
MIC in the presence of 4X MEC of EPI, VX-853 (S. aureus ATCC 29213): 0.25 µg/mL
MIC, No EPI (S. aureus ATCC 29213; antibacterial agent alone): 0.5 µg/mL
MIC of antibacterial agent, EPI none [4]: 0.5 µg/mL

CC[C@H]1OC(=O)[C@H](C)[C@@H](O[C@H]2C[C@@](C)(OC)[C@@H](O)[C@H](C)O2)[C@H](C)[C@@H](O[C@@H]2O[C@H](C)C[C@H](N(C)C)[C@H]2O)[C@](C)(O)C[C@@H](C)CN(C)[C@H](C)[C@@H](O)[C@]1(C)O [azithromycin]
MIC (S. aureus ATCC 29213; [6]): 1 µg/mL
MIC in the presence of 4X MEC of EPI, VX-710 (S. aureus ATCC 29213): 1 µg/mL
MIC in the presence of 4X MEC of EPI, VX-853 (S. aureus ATCC 29213): 1 µg/mL
MIC in the presence of 4X MEC of EPI, reserpine (S. aureus ATCC 29213): 1 µg/mL

CO[C@@H]1[C@@H](OC(N)=O)[C@@H](O)[C@H](Oc2ccc3c(O)c(NC(=O)c4ccc(O)c(CC=C(C)C)c4)c(=O)oc3c2C)OC1(C)C [novobiocin]
MIC (S. aureus ATCC 29213; [6]): 0.125 µg/mL
MIC in the presence of 4X MEC of EPI, VX-710 (S. aureus ATCC 29213): 0.063 µg/mL
MIC in the presence of 4X MEC of EPI, VX-853 (S. aureus ATCC 29213): 0.063 µg/mL
MIC in the presence of 4X MEC of EPI, reserpine (S. aureus ATCC 29213): 0.063 µg/mL

CO/N=C(\C(=O)N[C@@H]1C(=O)N2C(C(=O)O)=C(CSc3nc(=O)c(=O)[nH]n3C)CS[C@H]12)c1csc(N)n1 [ceftriaxone]
MIC (S. aureus ATCC 29213; [6]): 4 µg/mL
MIC in the presence of 4X MEC of EPI, VX-710 (S. aureus ATCC 29213): 4 µg/mL
MIC in the presence of 4X MEC of EPI, VX-853 (S. aureus ATCC 29213): 4 µg/mL
MIC in the presence of 4X MEC of EPI, reserpine (S. aureus ATCC 29213): 4 µg/mL

CN[C@H](CC(C)C)C(=O)N[C@H]1C(=O)N[C@@H](CC(N)=O)C(=O)N[C@H]2C(=O)N[C@H]3C(=O)N[C@H](C(=O)N[C@H](C(=O)O)c4cc(O)cc(O)c4-c4cc3ccc4O)[C@H](O)c3ccc(c(Cl)c3)Oc3cc2cc(c3O[C@@H]2O[C@H](CO)[C@@H](O)[C@H](O)[C@H]2O[C@H]2C[C@](C)(N)[C@H](O)[C@H](C)O2)Oc2ccc(cc2Cl)[C@H]1O [Vancomycin]
MIC ([5]; read-out: MIC, No EPI, E. faecalis clinical isolate 1): 1 µg/mL
MIC ([5]; read-out: MIC, No EPI, E. faecalis clinical isolate 2): 4 µg/mL
MIC ([5]; read-out: MIC, No EPI, E. faecalis clinical isolate 3): > 256 µg/mL
MIC ([5]; read-out: MIC, No EPI, E. faecalis clinical isolate 4): 1 µg/mL
MIC ([5]; read-out: MIC, No EPI, E. faecalis clinical isolate 5): 2 µg/mL
MIC ([5]; read-out: MIC, No EPI, E. faecalis clinical isolate 6): 2 µg/mL
MIC ([5]; read-out: MIC, No EPI, E. faecalis clinical isolate 7): 1 µg/mL
MIC ([5]; read-out: MIC, No EPI, E. faecalis clinical isolate 8): 128 µg/mL
MIC ([5]; read-out: MIC, No EPI, E. faecalis clinical isolate 9): 1 µg/mL
MIC ([5]; read-out: MIC, No EPI, E. faecalis clinical isolate 10): 2 µg/mL
MIC ([5]; read-out: MIC, No EPI, E. faecalis clinical isolate 11): 16 µg/mL
MIC ([5]; read-out: MIC, No EPI, E. faecalis clinical isolate 12): 4 µg/mL
MIC ([5]; read-out: MIC, No EPI, E. faecalis clinical isolate 13): 2 µg/mL
MIC ([5]; read-out: MIC, No EPI, E. faecalis clinical isolate 14): 1 µg/mL
MIC ([5]; read-out: MIC, No EPI, E. faecalis clinical isolate 15): 4 µg/mL
MIC ([5]; read-out: MIC, No EPI, E. faecalis clinical isolate 16): 0.5 µg/mL
MIC ([5]; read-out: MIC, No EPI, E. faecalis clinical isolate 17): 4 µg/mL
MIC ([5]; read-out: MIC, No EPI, E. faecalis clinical isolate 18): > 256 µg/mL
MIC ([5]; read-out: MIC, No EPI, E. faecalis clinical isolate 19): 2 µg/mL
MIC ([5]; read-out: MIC, No EPI, E. faecalis clinical isolate 20): 2 µg/mL
MIC ([5]; read-out: MIC, No EPI, E. faecalis clinical isolate 21): 1 µg/mL
MIC ([5]; read-out: MIC, No EPI, E. faecalis clinical isolate 22): 1 µg/mL
MIC ([5]; read-out: MIC, No EPI, E. faecalis clinical isolate 23): 2 µg/mL
MIC ([5]; read-out: MIC, No EPI, E. faecalis clinical isolate 24): 1 µg/mL
MIC ([5]; read-out: MIC, No EPI, E. faecalis clinical isolate 25): 1 µg/mL
MIC ([5]; read-out: MIC, No EPI, E. faecalis clinical isolate 26): > 256 µg/mL

CC(=O)NC[C@H]1CN(c2ccc(N3CCOCC3)c(F)c2)C(=O)O1 [linezolid]
MIC (S. aureus ATCC 29213; [6]): 4 µg/mL
MIC in the presence of 4X MEC of EPI, VX-710 (S. aureus ATCC 29213): 4 µg/mL
MIC in the presence of 4X MEC of EPI, VX-853 (S. aureus ATCC 29213): 4 µg/mL
MIC in the presence of 4X MEC of EPI, reserpine (S. aureus ATCC 29213): 4 µg/mL
